Laboratory results: PMC6147075, “Discovery of novel fragments inhibiting O-acetylserine sulphhydrylase by combining scaffold hopping and ligand–based drug design” (Journal of Enzyme Inhibition and Medicinal Chemistry, 2018)
Where two headings read alike, the source gives them in different places.

Assays:
OASS = conditions: cited from earlier work
Salmonella = experiment: Activity against Salmonella in vitro; type: cell-based
OASS-B [1] = target: T1, OASS-B (Salmonella typhimurium, UniProt P29848); design: method as in PMID 26894308; conditions: previously reported reference compound 2; cited from earlier work
T1 construct: His6 (N, cleaved yes); made in house; host or cells: E. coli Rosetta (DE3)
T1 sequence (P29848 1-303): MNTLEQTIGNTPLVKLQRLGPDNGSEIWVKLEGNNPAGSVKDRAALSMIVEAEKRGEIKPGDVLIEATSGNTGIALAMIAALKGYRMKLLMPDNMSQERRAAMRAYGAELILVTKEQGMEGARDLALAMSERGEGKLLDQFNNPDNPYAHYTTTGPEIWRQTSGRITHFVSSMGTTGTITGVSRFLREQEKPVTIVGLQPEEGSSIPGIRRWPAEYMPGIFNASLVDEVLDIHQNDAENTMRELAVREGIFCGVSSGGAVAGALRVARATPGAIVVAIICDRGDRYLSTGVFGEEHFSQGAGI

OASS-B [2] = target: T1, OASS-B; experiment: biochemical; type: binding; conditions: for LE (OASS-B): LE = (1.37/HA). pIC50, HA = heavy atoms
Experimental: (§1) The genes cysK and cysM encoding STOASS-A and STOASS-B, respectively, were subcloned from pET16b[34] to pET19m in order to replace the restriction site for Factor Xa with the one for TEV protease. pET19m-STcysK and pET19m-STcysM were transformed in E. coli Rosetta^TM (DE3) competent cells for protein expression. Protein expression and purification was performed following published protocols[34] with some modifications. Briefly, protein expression was induced on bacterial growth in exponential phase by IPTG for 4 and 5 h for OASS-B and OASS-A, respectively. Cells were lysed by pulsed sonication in 50 mM NaP, 300 mM NaCl, pH 7, with the addition of 1 mg/mL lysozyme. Purification was performed by immobilized metal affinity column (IMAC) on Co^2+ ions (Talon™, Clontech Laboratories, Inc., Mountain View, CA). Proteins were eluted with 250 mM (His6-OASS-A) or 600 mM (His6-OASS-B) imidazol. His-tag was removed from His6-OASS-A by treatment with TEV protease during O/N dialysis in 10 mM HEPES pH 8. His-tag was removed from His6-OASS-B by treatment with TEV protease in 20 mM HEPES, 100 mM NaCl, 1 mM TCEP pH 8 for 24 h at 5 °C. […] OASS-A was stored in 10 mM HEPES pH 8 and OASS-B in 20 mM HEPES, 100 mM NaCl, 1 mM TCEP pH 8.
(§2) The concentration of bisulfide was saturating (600 μM), whereas the concentration of OAS was set at Km to increase the sensitivity. The dissociation constant of selected compounds for StOASS-A and OASS-B was measured by a fluorimetric method published elsewhere[23]^,[24]. Briefly, a solution containing 1 µM StOASS-A in 100 mM Hepes pH 7 was titrated with increasing concentrations of compound at 20 °C. The fluorescence emission intensity of the PLP cofactor at 505 nm upon excitation at 412 nm was collected after each addition, subtracted by the blank and normalized by the protein dilution. The dependence of the emission intensity at 505 nm on the concentration of the compound was fitted to a binding isotherm[23] to calculate the dissociation constant of the protein-ligand complex.

StOASS-A = target: T2, StOASS-A (Salmonella typhimurium, UniProt P0A1E3); experiment: Fluorimetric binding titration (PLP emission), StOASS-A; design: species or system Salmonella enterica serovar Typhimurium; conditions: for LE (OASS-A): LE = (1.37/HA). pIC50, HA = heavy atoms; for Kd: 1 µM StOASS-A, 100 mM Hepes pH 7, 20 °C, read-out: Kd OASS-A
T2 construct: His6 (N, cleaved yes); made in house; host or cells: E. coli Rosetta (DE3)
T2 sequence (P0A1E3 whole entry): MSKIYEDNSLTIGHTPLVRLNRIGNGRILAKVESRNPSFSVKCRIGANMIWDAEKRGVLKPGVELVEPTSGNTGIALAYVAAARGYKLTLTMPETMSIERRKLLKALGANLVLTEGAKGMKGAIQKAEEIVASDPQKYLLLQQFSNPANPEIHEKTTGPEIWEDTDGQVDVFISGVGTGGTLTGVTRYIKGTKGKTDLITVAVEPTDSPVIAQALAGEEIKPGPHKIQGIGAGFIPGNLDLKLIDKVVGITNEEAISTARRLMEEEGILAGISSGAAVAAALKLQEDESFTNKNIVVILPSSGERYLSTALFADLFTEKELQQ
Experimental: as §1, §2

[3] = test system: cell envelope of Gram-negative bacteria; conditions: not told
OASS-A = target: T3, OASS-A (Salmonella typhimurium, UniProt P0A1E3); experiment: 96-well activity assay (cysteine-ninhydrin), OASS-A; type: biochemical, Salmonella enterica serovar Typhimurium; conditions: bisulfide 600 µM, OAS at Km, two replicates
T3 construct: His6 (N, cleaved yes); made in house; host or cells: E. coli Rosetta (DE3)
T3 sequence (P0A1E3 whole entry): as above
Experimental: as §1, §2

OASS-B [4] = target: T1, OASS-B; experiment: 96-well activity assay (cysteine-ninhydrin), OASS-B; type: biochemical; conditions: for % inhibition OASS-B: compound 1 µM, bisulfide 600 µM, OAS at Km, two replicates, ns = Not Significant; for inhibition at 1000 µM: read-out: % inhibition OASS-B
Experimental: as §1, §2

[5] = compound 1 µM, ns = Not Significant
[6] = read-out: % inhibition OASS-A, compound 1 mM
[7] = compound 1 mM, read-out: % inhibition OASS-A

Compound	% inhibition OASS-A (OASS-A; [5])	% inhibition OASS-B (OASS-B [4])	inhibition at 1000 µM (OASS-B [4])	inhibition at 1000 µM (OASS-A; [7])	also measured
C/C=C/[C@@H]1C[C@H]1C(=O)O (racemic) [Compound 1, (±)-trans-2-[(1E)-prop-1-en-1-yl]cyclopropanecarboxylic acid]	–	–	–	–	Kd (OASS; read-out: Kd): 1.46 µM
Cc1ccc(C[C@@]2(C(=O)O)C[C@H]2c2ccccc2)cc1 [Compound 2, (1S,2S)-1–(4-methylbenzyl)-2-phenylcyclopropanecarboxylic acid]	–	–	–	–	activity when tested against Salmonella in vitro (Salmonella): did not show any activity; Kd (OASS-B [1]): 0.049 µM; LE (OASS-B) (OASS-B [2]): 0.50 kcal/mol/HA; LE (OASS-A) (StOASS-A): 0.52 kcal/mol/HA; permeability through the cell envelope [3]: poor permeability; Kd (OASS; read-out: Kd-OASS): 0.028 µM
Cc1ccc(-n2nccc2C(=O)O)cc1 [Compound 4a, 1-(p-tolyl)-1H-pyrazole-5-carboxylic acid]	ns^b	ns	65 ± 2%	–	% inhibition OASS-A (OASS-A; compound 1 mM): 45 ± 3%; inhibition at 1000 µM (OASS-A; [6]): 50%
O=C(O)c1ccnn1-c1ccccc1 [Compound 4b, 1-phenyl-1H-pyrazole-5-carboxylic acid]	ns	–	65 ± 1%	66 ± 1%	inhibition at 1 µM (OASS-B [4]): 11 ± 3%
O=C(O)c1ccn[nH]1 [Compound 4c, 1H-pyrazole-5-carboxylic acid]	–	ns	82 ± 1%	> 90%	inhibition at 1 µM (OASS-A; [5]): 9 ± 7%; % inhibition OASS-A (OASS-A; compound 1 mM): 94 ± 1%; Kd (OASS-B [2]): 272 ± 10 µM; LE (OASS-B) (OASS-B [2]): 0.61 kcal/mol/HA; Kd (StOASS-A): 122 ± 5 µM; LE (OASS-A) (StOASS-A): 0.67 kcal/mol/HA
O=C(O)c1ccnn1-c1ccc(Cl)cc1 [Compound 4d, 1–(4-chlorophenyl)-1H-pyrazole-5-carboxylic acid]	ns	–	56 ± 1%	60 ± 2%	inhibition at 1 µM (OASS-B [4]): 9 ± 6%
O=C(O)c1ccnn1-c1ccc(Br)cc1 [Compound 4e, 1–(4-bromophenyl)-1H-pyrazole-5-carboxylic acid]	ns	ns	58 ± 2%	–	% inhibition OASS-A (OASS-A; compound 1 mM): 84 ± 1%; inhibition at 1000 µM (OASS-A; [6]): > 80%
CC(C)(C)c1ccc(-n2nccc2C(=O)O)cc1 [Compound 4f, 1–(4-(tert-butyl)phenyl)-1H-pyrazole-5-carboxylic acid]	ns	ns	52 ± 5%	47 ± 1%	–
O=C(O)c1ccnn1-c1ccc(F)cc1 [Compound 4g, 1–(4-fluorophenyl)-1H-pyrazole-5-carboxylic acid]	–	–	62 ± 1%	95 ± 1%	inhibition at 1 µM (OASS-A; [5]): 8 ± 1%; inhibition at 1 µM (OASS-B [4]): 14 ± 2%
O=C(O)c1ccnn1C1CCCCC1 [Compound 4h, 1-cyclohexyl-1H-pyrazole-5-carboxylic acid]	ns	ns	30 ± 1%	57 ± 1%	–
O=C(O)c1ccn(-c2ccc(Cl)cc2)n1 [Compound 5d, 1–(4-chlorophenyl)-1H-pyrazole-3-carboxylic acid]	ns	–	63 ± 1%	63 ± 1%	inhibition at 1 µM (OASS-B [4]): 15 ± 2%
O=C(O)c1ccn(-c2ccc(Br)cc2)n1 [Compound 5e, 1–(4-bromophenyl)-1H-pyrazole-3-carboxylic acid]	ns	ns	35 ± 2%	62 ± 1%	–
CC(C)(C)c1ccc(-n2ccc(C(=O)O)n2)cc1 [Compound 5f, 1–(4-(tert-butyl)phenyl)-1H-pyrazole-3-carboxylic acid]	ns	–	82 ± 1%	81 ± 1%	inhibition at 1 µM (OASS-B [4]): 11 ± 6%
O=C(O)c1ccn(-c2ccc(F)cc2)n1 [Compound 5g, 1–(4-fluorophenyl)-1H-pyrazole-3-carboxylic acid]	ns	ns	36 ± 3%	73 ± 1%	–
O=C(O)c1ccn(C2CCCCC2)n1 [Compound 5h, 1-cyclohexyl-1H-pyrazole-3-carboxylic acid]	ns	ns	43 ± 3%	79 ± 1%	–
O=C(O)c1ccc[nH]1 [Compound 14, 1H-pyrrole-2-carboxylic acid]	–	–	–	–	Kd (OASS-B [2]): 465 ± 50 µM; LE (OASS-B) (OASS-B [2]): 0.60 kcal/mol/HA; Kd (StOASS-A): 59 ± 11 µM; LE (OASS-A) (StOASS-A): 0.72 kcal/mol/HA
O=C(O)c1nccs1 [Compound 16, thiazole-2-carboxylic acid]	–	–	–	–	Kd (OASS-B [2]): 338 ± 14 µM; LE (OASS-B) (OASS-B [2]): 0.60 kcal/mol/HA; Kd (StOASS-A): 52 ± 6 µM; LE (OASS-A) (StOASS-A): 0.74 kcal/mol/HA
